According to US20130197080A1, “USE OF TERIFLUNOMIDE FOR TREATING MULTIPLE SCLEROSIS” (SANOFI, priority 2010, published 2013):
Several values for one entry are separate records, joined by “and”; a condition that tells them apart may be missing. Identical values can stand only once.

System: patients with RMS
Assay: TEMSO Phase III trial: safety and tolerability (adverse events, laboratory tests)
Conditions: for incidence of ALT increase (≧1×ULN) / incidence of ALT ≧3×ULN: laboratory; for proportion of patients with TEAEs potentially related to hypersensitivity/skin disorders: selected SMQs terms; for patients with increased ALT ≧3×ULN and total bilirubin ≧2×ULN: considered non drug-induced
[1] = 7 mg once daily oral, safety population (N = 368)
[2] = 14 mg once daily oral, safety population (N = 358)
[3] = teriflunomide treatment, occurred over the first 3 months, slightly more marked with 14 mg

Protocol: Following a screening phase of up to 4 weeks, eligible patients were randomized (1:1:1) to receive a once-daily oral dose of placebo or teriflunomide, 7 mg or 14 mg, for 108 weeks. Randomization was stratified by baseline EDSS score (≦3.5 and >3.5) and by trial site. Participants successfully completing the study were eligible to enter a long-term extension.
Safety was evaluated by the occurrence of adverse events reported by the patient or the investigator. Laboratory tests were performed during screening, at baseline, and then every 2 weeks for the first 24 weeks, then every 6 weeks until study completion. Physical and neurologic examinations were performed at Week 12 and then every 24 weeks. An abdominal ultrasound to assess pancreatic abnormalities was done prior to the study and then every 24 weeks.
Laboratory testing of liver function and complete blood cell count with differential were performed at baseline, then every 2 weeks for the first 24 weeks of treatment and every 6 weeks thereafter. Patients with any of the following adverse events were discontinued from the study and were subsequently followed-up: • Any confirmed increase (repeated value within 48 hours) in alanine aminotransferase (≧3×ULN) with or without increase in total bilirubin level • Any occurrence of confirmed neutrophil count less than 1.0×10^9 cells/L with or without infection • Any potentially life-threatening cytopenias detected during the follow-up of laboratory abnormalities as per the investigator's judgment
Laboratory testing of pancreatic enzymes was performed at baseline, then every 2 weeks for the first 24 weeks of treatment and every 6 weeks thereafter. An abdominal ultrasound was performed at baseline and then every 24 weeks until study completion. Any suspected abnormal ultrasound was followed up with a CT scan with contrast, or by MRI.
Serum pregnancy testing was performed at baseline, Week 10, Week 24 and then every 12 weeks thereafter. If the pregnancy test was positive, the study medication was discontinued, and the physician was required to inform the patient of the risk of pregnancy and to discuss the potential alternatives. If the patient decided to continue with their pregnancy, a washout was required. If the patient decided not to continue with their pregnancy, the study medication could be resumed 2 weeks after termination of the pregnancy.

## C/C(O)=C(\C#N)C(=O)Nc1ccc(C(F)(F)F)cc1 [teriflunomide, (Z)-2-cyano-3-hydroxy-but-2-enoic acid-(4′-trifluoromethylphenyl)-amide]
7 mg (N = 368)
  Serious adverse event, Blood disorders: Anemia: 1 (0.3%) n (%)
  Serious adverse event, Blood disorders: Neutropenia: 0 n (%)
  Serious adverse event, Blood disorders: Neutrophil count decreased: 0 n (%)
  Serious adverse event, Hepatic and hepatobiliary disorders: Alanine aminotransferase increased: 5 (1.4%) n (%)
  Serious adverse event, Hepatic and hepatobiliary disorders: Hepatic enzyme increased: 0 n (%)
  Serious adverse event, Hepatic and hepatobiliary disorders: Hepatitis toxic: 0 n (%)
  Serious adverse event, Hepatic and hepatobiliary disorders: Liver injury: 1 (0.3%) n (%)
  Serious adverse event, Hepatic and hepatobiliary disorders: Transaminases increased: 1 (0.3%) n (%)
  Serious adverse event, Infections: Appendicitis: 2 (0.5%) n (%)
  Serious adverse event, Infections: Bacteremia: 0 n (%)
  Serious adverse event, Infections: Cellulitis: 0 n (%)
  Serious adverse event, Infections: Cytomegalovirus hepatitis: 0 n (%)
  Serious adverse event, Infections: Erysipelas: 1 (0.3%) n (%)
  Serious adverse event, Infections: Gastroenteritis: 0 n (%)
  Serious adverse event, Infections: Hepatitis C: 0 n (%)
  Serious adverse event, Infections: Herpes zoster: 0 n (%)
  Serious adverse event, Infections: Infected cyst: 1 (0.3%) n (%)
  Serious adverse event, Infections: Lung infection: 0 n (%)
  Serious adverse event, Infections: Pneumonia: 2 (0.5%) n (%)
  Serious adverse event, Infections: Pyelonephritis: 0 n (%)
  Serious adverse event, Infections: Renal abscess: 0 n (%)
  Serious adverse event, Infections: Urinary tract infection: 0 n (%)
  Serious adverse event, Infections: Urinary tract infection enterococcal: 0 n (%)
  Serious adverse event, Malignant neoplasms: Breast cancer: 0 n (%)
  Serious adverse event, Malignant neoplasms: Cervix carcinoma stage 0: 0 n (%)
  Serious adverse event, Malignant neoplasms: Thyroid cancer: 0 n (%)
  Serious adverse event, Pancreatic disorders: Lipase increased: 2 (0.5%) n (%)
  Serious adverse event, Pancreatic disorders: Pancreatitis: 0 n (%)
  TEAE potentially related to hypersensitivity/skin reactions: Erythema: 7 (1.9%) n (%)
  TEAE potentially related to hypersensitivity/skin reactions: Pruritus: 13 (3.5%) n (%)
  TEAE potentially related to hypersensitivity/skin reactions: Pruritus rash: 2 (0.5%) n (%)
  TEAE potentially related to hypersensitivity/skin reactions: Urticaria: 4 (1.1%) n (%)
7 mg group
  Polyneuropathy incidence: 0.3%
  TEAEs (patients): 89.1%
  TEAEs leading to treatment discontinuation: 9.8%
  diarrhea leading to treatment discontinuation: 0.3%
  hair thinning/decreased hair density leading to treatment discontinuation: 0.5%
  incidence of serious hepatic disorders (ALT >8×ULN and/or ALT >3×ULN with total bilirubin >3 mg/dL and/or any hepatic event with seriousness criterion): 1.9%
  incidence of serious infections: 1.6%
  induced abortions among pregnancies during the trial: 5
  nausea leading to treatment discontinuation: 0.3%
  neutropenia disorders (patients): 2.2%
  patients with mild or moderate peripheral neuropathy with conduction confirmation: four
  proportion of patients experiencing any bone marrow TEAE: 9.8%
  proportion of patients with TEAEs related to blood pressure increase: 5.4%
  serious TEAEs (patients): 14.1%
  incidence of ALT increase (≧1×ULN): 54.0%
  incidence of ALT ≧3×ULN: 6.3%
  proportion of patients with TEAEs potentially related to hypersensitivity/skin disorders: 10.3%
  patients with increased ALT ≧3×ULN and total bilirubin ≧2×ULN: one
7 mg group, single patient
  neutrophil count decrease in case of neutropenia leading to treatment discontinuation: 8.7e+08 L⁻¹
7 mg group, single patient, three days after treatment discontinuation
  neutrophil count after recovery: 1.34e+09 L⁻¹
[1]
  Any event leading to death: 0 n (%)
  Any treatment emergent adverse event leading to discontinuation of study drug: 36 (9.8) n (%)
  Any treatment emergent serious adverse event: 52 (14.1) n (%)
  At least one treatment emergent adverse event: 328 (89.1) n (%)
  TEAE Alanine aminotransferase increased (reported as adverse event by the investigator): 44 (12.0) no. of patients (%)
  TEAE Back pain: 39 (10.6) no. of patients (%)
  TEAE Diarrhea: 54 (14.7) no. of patients (%)
  TEAE Fatigue: 47 (12.8) no. of patients (%)
  TEAE Hair thinning/decreased hair density (MedDRA: alopecia): 38 (10.3) no. of patients (%)
  TEAE Headache: 81 (22.0) no. of patients (%)
  TEAE Nasopharyngitis: 94 (25.5) no. of patients (%)
  TEAE Nausea: 33 (9.0) no. of patients (%)
  TEAE Pain in extremity: 26 (7.1) no. of patients (%)
  TEAE Urinary tract infection: 27 (7.3) no. of patients (%)
14 mg (N = 358)
  Serious adverse event, Blood disorders: Anemia: 0 n (%)
  Serious adverse event, Blood disorders: Neutropenia: 1 (0.3%) n (%)
  Serious adverse event, Blood disorders: Neutrophil count decreased: 1 (0.3%) n (%)
  Serious adverse event, Hepatic and hepatobiliary disorders: Alanine aminotransferase increased: 5 (1.4%) n (%)
  Serious adverse event, Hepatic and hepatobiliary disorders: Hepatic enzyme increased: 1 (0.3%) n (%)
  Serious adverse event, Hepatic and hepatobiliary disorders: Hepatitis toxic: 1 (0.3%) n (%)
  Serious adverse event, Hepatic and hepatobiliary disorders: Liver injury: 0 n (%)
  Serious adverse event, Hepatic and hepatobiliary disorders: Transaminases increased: 1 (0.3%) n (%)
  Serious adverse event, Infections: Appendicitis: 0 n (%)
  Serious adverse event, Infections: Bacteremia: 1 (0.3%) n (%)
  Serious adverse event, Infections: Cellulitis: 0 n (%)
  Serious adverse event, Infections: Cytomegalovirus hepatitis: 1 (0.3%) n (%)
  Serious adverse event, Infections: Erysipelas: 0 n (%)
  Serious adverse event, Infections: Gastroenteritis: 1 (0.3%) n (%)
  Serious adverse event, Infections: Hepatitis C: 0 n (%)
  Serious adverse event, Infections: Herpes zoster: 0 n (%)
  Serious adverse event, Infections: Infected cyst: 0 n (%)
  Serious adverse event, Infections: Lung infection: 0 n (%)
  Serious adverse event, Infections: Pneumonia: 0 n (%)
  Serious adverse event, Infections: Pyelonephritis: 3 (0.8%) n (%)
  Serious adverse event, Infections: Renal abscess: 1 (0.3%) n (%)
  Serious adverse event, Infections: Urinary tract infection: 1 (0.3%) n (%)
  Serious adverse event, Infections: Urinary tract infection enterococcal: 1 (0.3%) n (%)
  Serious adverse event, Malignant neoplasms: Breast cancer: 0 n (%)
  Serious adverse event, Malignant neoplasms: Cervix carcinoma stage 0: 1 (0.3%) n (%)
  Serious adverse event, Malignant neoplasms: Thyroid cancer: 0 n (%)
  Serious adverse event, Pancreatic disorders: Lipase increased: 0 n (%)
  Serious adverse event, Pancreatic disorders: Pancreatitis: 0 n (%)
  TEAE potentially related to hypersensitivity/skin reactions: Erythema: 4 (1.1%) n (%)
  TEAE potentially related to hypersensitivity/skin reactions: Pruritus: 10 (2.8%) n (%)
  TEAE potentially related to hypersensitivity/skin reactions: Pruritus rash: 1 (0.3%) n (%)
  TEAE potentially related to hypersensitivity/skin reactions: Urticaria: 3 (0.8%) n (%)
14 mg group
  Polyneuropathy incidence: 0.8%
  TEAEs (patients): 90.8%
  TEAEs leading to treatment discontinuation: 10.9%
  diarrhea leading to treatment discontinuation: 0.3%
  hair thinning/decreased hair density leading to treatment discontinuation: 1.4%
  incidence of serious hepatic disorders (ALT >8×ULN and/or ALT >3×ULN with total bilirubin >3 mg/dL and/or any hepatic event with seriousness criterion): 2.5%
  incidence of serious infections: 2.5%
  induced abortions among pregnancies during the trial: 1
  nausea leading to treatment discontinuation: 0.0%
  neutropenia disorders (patients): 4.5%
  patients who discontinued treatment due to pruritus: One
  patients with mild or moderate peripheral neuropathy with conduction confirmation: six
  proportion of patients experiencing any bone marrow TEAE: 7.5%
  proportion of patients with TEAEs related to blood pressure increase: 5.0%
  serious TEAEs (patients): 15.9%
  spontaneous abortions among pregnancies during the trial: 3
  incidence of ALT increase (≧1×ULN): 57.3%
  incidence of ALT ≧3×ULN: 6.7%
  proportion of patients with TEAEs potentially related to hypersensitivity/skin disorders: 11.2%
  patients with increased ALT ≧3×ULN and total bilirubin ≧2×ULN: one
14 mg group, two patients
  neutrophil count in cases of moderate neutrophil count decrease (serious AEs): 9.5e+08 L⁻¹ and 9e+08 L⁻¹
14 mg group, two patients, a few days later, treatment continuing
  neutrophil count after recovery: 2.09e+09 L⁻¹ and 3.82e+09 L⁻¹
14 mg group, cervix carcinoma in situ (stage 0) after 1.5 years treatment
  patients with malignant neoplasms: one
[2]
  Any event leading to death: 0 n (%)
  Any treatment emergent adverse event leading to discontinuation of study drug: 39 (10.9) n (%)
  Any treatment emergent serious adverse event: 57 (15.9) n (%)
  At least one treatment emergent adverse event: 325 (90.8) n (%)
  TEAE Alanine aminotransferase increased (reported as adverse event by the investigator): 51 (14.2) no. of patients (%)
  TEAE Back pain: 41 (11.5) no. of patients (%)
  TEAE Diarrhea: 64 (17.9) no. of patients (%)
  TEAE Fatigue: 52 (14.5) no. of patients (%)
  TEAE Hair thinning/decreased hair density (MedDRA: alopecia): 47 (13.1) no. of patients (%)
  TEAE Headache: 67 (18.7) no. of patients (%)
  TEAE Nasopharyngitis: 93 (26.0) no. of patients (%)
  TEAE Nausea: 49 (13.7) no. of patients (%)
  TEAE Pain in extremity: 33 (9.2) no. of patients (%)
  TEAE Urinary tract infection: 37 (10.3) no. of patients (%)
Across groups
  serious opportunistic infections: no serious opportunistic infections observed
Across the three treatment groups
  increases in amylase and lipase (mean change from baseline): No increases
All groups
  deaths: No deaths occurred
  treatment discontinuation due to increased blood pressure: No patient discontinued treatment
On teriflunomide
  neutrophil count in three cases of moderate neutropenia: 9e+08 L⁻¹
Teriflunomide groups
  adverse event potentially attributed to interstitial lung disease (SMQ terms): No adverse event
  average increase in diastolic blood pressure: < 2 mmHg
  average increase in systolic blood pressure: < 4 mmHg
[3]
  mean reduction from baseline in lymphocyte counts: 3e+08 L⁻¹
  mean reduction from baseline in neutrophil counts: 1e+09 L⁻¹
